Here are results for 14 compounds from patent US12427135B2 (priority 2019, dated 2025).

The target in assay [1] is T1, Stx2A1 (Escherichia phage 933W (Bacteriophage 933W), UniProt P09385). Type of assay: binding.
In assay [2] the target is T1, Stx2A1. Kind of assay: biochemical. Format: biochemical.
The target in assay [3] is T2, RTA (Ricinus communis (Castor bean), UniProt P02879). Format: binding.
Assay [4] concerns the target T2, RTA. The assay is described as follows: biochemical. Particulars: for inhibition at 50 µM: read-out: Percent inhibition at 50 μM. Format: biochemical.
The target in assay [5] is Stx2a holotoxin (Escherichia phage 933W (Bacteriophage 933W), UniProt P09385). Kind of assay: cell-based. Type of assay: cell-based.
Where [6] appears, read: read-out: % inhibition Stx2A1 in yeast ribosome.
[7] abbreviates: Vero, read-out: % Inhibition Stx2a depurination in Vero cell.

T1 sequence (P09385 23-272 limits assumed): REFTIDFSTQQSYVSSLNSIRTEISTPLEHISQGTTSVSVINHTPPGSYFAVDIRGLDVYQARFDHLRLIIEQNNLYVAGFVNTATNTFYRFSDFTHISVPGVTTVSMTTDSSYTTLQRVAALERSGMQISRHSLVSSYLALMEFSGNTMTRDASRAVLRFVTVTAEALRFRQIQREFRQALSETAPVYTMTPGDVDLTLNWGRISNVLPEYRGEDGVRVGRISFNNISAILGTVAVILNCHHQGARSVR
Chain of Stx2a holotoxin (P09385 23-319 limits assumed): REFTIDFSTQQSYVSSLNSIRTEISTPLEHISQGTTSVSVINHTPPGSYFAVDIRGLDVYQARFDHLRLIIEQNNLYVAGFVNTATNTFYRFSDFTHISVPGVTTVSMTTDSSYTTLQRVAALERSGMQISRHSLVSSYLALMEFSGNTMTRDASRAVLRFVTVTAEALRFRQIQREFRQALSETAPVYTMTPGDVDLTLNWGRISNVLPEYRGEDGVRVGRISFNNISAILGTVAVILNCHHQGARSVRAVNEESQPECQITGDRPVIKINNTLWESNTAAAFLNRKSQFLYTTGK

A word on the Kd: it is the free concentration of one partner at which half of the binding sites on the other are occupied at equilibrium, for simple one-to-one binding. The term IC50 denotes the concentration needed to halve the response being measured. `O=C(O)c1ccc(-c2ccc(Cl)cc2)o1` gave a dissociation constant (Kd) in assay [1] of 0.575 mM. Further, 194 µM corresponded to half-maximal inhibition in assay [2] (IC50).
The inhibition is the share of the control response that was lost under treatment. Consider `Cc1ccc(-c2ccc(C(=O)O)o2)cc1`, for which binding in assay [1] was put at a Kd of 0.606 mM. For the same compound, in assay [2] (setting [6]), the inhibition at 100 µM was found to be 64% and the inhibition at 200 µM was 70%.
As to `Cc1cccc(F)c1-c1ccc(C(=O)O)s1` [RU-NT-110], the Kd in assay [3] is 93 µM. The inhibition at 50 µM in assay [4] was 61%.
The corresponding values for `COc1cccc(C)c1-c1ccc(C(=O)O)s1` [RU-NT-111] are 51 µM and 66%.
`Cc1ccccc1-c1ccc(C(=O)O)s1` [RU-NT-070] registered a Kd in assay [3] of 72 µM. In assay [4], this compound yielded an IC50 of 19 µM.
With `O=C(O)c1ccc(Cc2cccs2)cc1` [CC70601, 4-(thien-2-ylmethyl) benzoic acid], the “binding in the binding level screen” value in assay [3] is reported as “bound RTA better than the positive controls”.
In assay [1], `O=C(O)c1csc(-c2cccc(Cl)c2)n1` displayed a dissociation constant (Kd) of 0.579 mM. In addition, in assay [2] (setting [6]), the inhibition at 100 µM came out at 83% and the inhibition at 200 µM is 91%.
As for `Cc1cc(C)c(-c2ccc(C(=O)O)s2)c(C)c1` [RU-NT-075], in assay [4], the inhibition at 50 µM was determined as 45%.
For `O=C(O)c1cc2c(s1)-c1ccccc1CC2` [PD00589, reference compound], in assay [2], the “inhibitory activity against Stx2A/Stx2A1 depurination in vitro” value is on record as “dose-dependent inhibition”. In addition, the “protection against depurination by Stx2a holotoxin in Vero cells” value in assay [5] is “protected Vero cells against depurination”.
On to `O=C(O)c1ccc(-c2cccc3c2OCC3)s1` [RU-NT-105], for which the Kd in assay [3] is 1180 ± 193 µM. Besides, the inhibition at 100 µM in assay [4] (read-out: Percent inhibition at 100 μM) turned out to be 54 ± 7%.
For `O=C(O)c1cc2c(s1)-c1ccccc1CC2` [drawing 373], in assay [1], binding was put at a Kd of 0.629 mM. In assay [2] (setting [6]), the inhibition at 50 µM was 45%, the inhibition at 100 µM was found to be 51% and the inhibition at 200 µM is 80%. In assay [5] (setting [7]), the inhibition at 250 µM was determined as 18% and the inhibition at 500 µM was determined as 36%.
In assay [3], `Cc1cccc(O)c1-c1ccc(C(=O)O)s1` [RU-NT-113] displayed a Kd of 31 µM. Moreover, the inhibition at 50 µM in assay [4] stood at 69%.
With `O=C(O)c1ccc(-c2ccccc2)s1` [CC10501, 5-phenylthiophene-2-carboxylic acid], the “binding in the binding level screen” value in assay [3] is given as “bound RTA better than the positive controls”. In assay [4], the “IC50 fold weaker than CC70601” value is given as 5.6 fold.
Take `O=C(O)c1csc(-c2cccc(Cl)c2Cl)n1`: the Kd in assay [1] came to 0.487 mM. In assay [2] (setting [6]), the inhibition at 100 µM worked out at 82% and the inhibition at 200 µM worked out at 62%.
